Patent US20220233566A1, “NOVEL CARBONATE COMPOUND HAVING PYRROLOPYRIMIDINE SKELETON OR PHARMACEUTICALLY ACCEPTABLE SALT THEREOF” (TAIHO PHARMACEUTICAL CO., LTD., priority 2019, published 2022)

What was measured:
H358 = test: Growth suppression activity to human tumor cell line (Evaluation 2); assay type: cell-based; conditions: NCI-H358, 72 h, Human lung cancer, H358, 3 days
Method: (§1) Human tumor cell lines different in type were suspended in mediums, seeded in individual wells of a multi-well plate and cultured. On the day after initiation of culture, serially diluted solutions of a compound were added. Culture was carried out for further 3 days. Cells were counted by a CellTiter-Glo (manufactured by Promega KK) in accordance with the protocol recommended by Promega KK. Cell viability was calculated in accordance with the equation shown below and the concentration (IC50 (nM)) of the compound at which 50% of cell growth is inhibited was obtained.
(§2) T: Intensity of light emitted from a well containing a compound
(§3) C: Intensity of light emitted from a well containing no compound

H1650 = test: as above; assay type: cell-based; conditions: NCI-H1650, 72 h, Human lung cancer, H1650, 3 days
Method: as §1, §2, §3

SK-BR-3 = test: as above; assay type: cell-based; conditions: Human breast cancer, SK-BR-3, 3 days
Method: as §1, §2, §3

H2122 = test: as above; assay type: cell-based; conditions: NCI-H2122, 72 h, Human lung cancer, H2122, 3 days
Method: as §1, §2, §3

MCF7 = test: Growth suppression activity in human tumor cell line; assay type: cell-based; conditions: 72 h; Human breast cancer, MCF7, 3 days
Method: (§4) Human tumor cell lines different in type were suspended in mediums, seeded in individual wells of a multi-well plate and cultured. On the day after initiation of culture, serially diluted solutions of a compound were added. Culture was carried out for further 3 days. Cells were counted by a CellTiter-Glo (manufactured by Promega KK) in accordance with the protocol recommended by Promega KK. Cell viability was calculated in accordance with the equation shown below and the concentration (IC50 (μM)) of the compound at which 50% of cell growth is inhibited was obtained.
as §2, §3

A673 = test: as above; assay type: cell-based; conditions: 72 h; Human bone tumor, A673, 3 days
Method: as §4, §2, §3

EBC1 = test: as above; assay type: cell-based; conditions: EBC-1, 72 h; Human lung cancer, EBC1, 3 days
Method: as §4, §2, §3

HT29 = test: as above; assay type: cell-based; conditions: HT-29, 72 h; Human colorectal cancer, HT29, 3 days
Method: as §4, §2, §3

HT1376 = test: as above; assay type: cell-based; conditions: HT-1376, 72 h; human bladder cancer, HT1376, 3 days
Method: as §4, §2, §3

H226 = test: as above; assay type: cell-based; conditions: NCI-H226, 72 h; Human lung cancer, H226, 3 days
Method: as §4, §2, §3

A2780 = test: as above; assay type: cell-based; conditions: 72 h; Human ovary cancer, A2780, 3 days
Method: as §4, §2, §3

H2081 = test: as above; assay type: cell-based; conditions: NCI-H2081, 72 h; Human lung cancer, H2081, 3 days
Method: as §4, §2, §3

HL60 = test: as above; assay type: cell-based; conditions: HL-60, 72 h; Human hematopoietic organ tumor, HL60, 3 days
Method: as §4, §2, §3

CA9-22 = test: as above; assay type: cell-based; conditions: 72 h; Human head and neck cancer, CA9-22, 3 days
Method: as §4, §2, §3

BCP1 = test: as above; assay type: cell-based; conditions: BCP-1, 72 h; Human hematopoietic organ tumor, BCP1, 3 days
Method: as §4, §2, §3

DOK = test: as above; assay type: cell-based; conditions: 72 h, Human head and neck cancer, 3 days
Method: as §4, §2, §3

[1] = as above; assay type: cell-based; conditions: 72 h; Human prostate cancer, DUI45, 3 days
Method: as §4, §2, §3

CCRFCEM = test: as above; assay type: cell-based; conditions: CCRF-CEM, 72 h, Human hematopoietic organ tumor, 3 days
Method: as §4, §2, §3

SPC111 = test: as above; assay type: cell-based; conditions: 72 h; Human lung cancer, SPC111, 3 days
Method: as §4, §2, §3

BHL-89 = test: as above; assay type: cell-based; conditions: 72 h; Human hematopoietic organ tumor, BHL-89, 3 days
Method: as §4, §2, §3

LN229 = test: as above; assay type: cell-based; conditions: LN-229, 72 h; Human brain tumor, LN229, 3 days
Method: as §4, §2, §3

HCT116 = test: as above; assay type: cell-based; conditions: HCT-116, 72 h; Human colorectal cancer, HCT116, 3 days
Method: as §4, §2, §3

BC3 = test: as above; assay type: cell-based; conditions: BC-3, 72 h; Human hematopoietic organ tumor, BC3, 3 days
Method: as §4, §2, §3

[2] = Presence of prodrug in mouse and absorbency (plasma AUC after oral administration); assay type: in vivo; conditions: male, Balb/cA, mouse, 17 umol/kg, mice, 17 μmol/kg, administered compound itself in plasma, read-out: AUC0-6hr
Method: The dosage amounts of the compounds of Comparative Examples 1 to 5 and Examples 1 to 26 are those (mole/10 mL/kg) shown in Tables. Solutions for administration were prepared with an 0.5% aqueous solutions of HPMC so as to satisfy the dosage amounts.
Note that, the “amount of mole/10 mL/kg” means as follows: for example “10 mmol/10 mL/kg” means that 10 mmol of a test compound per body-weight (1 kg) of a mouse was dispersed or dissolved in a solution (10 mL) for administration. The same applies hereinafter.
The solutions for administration prepared above were orally administered to mice (Balb/cA, male) not fasted each by use of an oral administration sonde.
The mice were anesthetized with isoflurane 0.5, 1, 2, 4 and 6 hours after administration and blood was taken from the facial vein by use of a specific needle (animal lancet) and a heparin-coated hematocrit tube.
The blood sampled was immediately centrifuged (13000 rpm, 2 minutes, 4° C.) to prepare the plasma samples. After proteins were removed from the plasma samples, the concentrations of the test compound in the plasma samples were measured by LC/MS/MS.
The value of “area under the curve” (AUC) of drug concentration in blood versus time was calculated using analysis software such as Phoenix (registered trademark) WinNonlin (registered trademark).
In Table 3, “Comparative Example 1” and “Comparative Example 2” represent the “compound (Br form) of Comparative Example 1” and the “compound (I form) of Comparative Example 2”, respectively. In Table 4, “Comparative Example 6” represents the “compound (C1 form) of Comparative Example 6”.

Nc1ncnc2c1c(Br)cn2[C@@H]1O[C@H](CO)[C@@H](O)[C@@H]1F [Comparative Example 1, (2R,3R,4S,5R)-5-(4-amino-5-bromo-7H-pyrrolo[2,3-d]pyrimidin-7-yl)-4-fluoro-2-(hydroxymethyl) tetrahydrofuran-3-ol]
IC50 (H358): 52 nM
IC50 (H1650): 8 nM
IC50 (SK-BR-3; Homo sapiens, SK-BR-3, 72 h): 26 nM
IC50 (SK-BR-3): 23 nM
IC50 (H2122): 9 nM
IC50 (MCF7): 80 nM
IC50 (A673): 130 nM
IC50 (EBC1): 60 nM
IC50 (HT29): 110 nM
IC50 (HT1376): 60 nM
IC50 (H226): 130 nM
IC50 (A2780): 50 nM
IC50 (H2081): 90 nM
IC50 (HL60): 300 nM
IC50 (CA9-22): 80 nM
IC50 (BCP1): 110 nM
IC50 (DOK): 110 nM
IC50 [1]: 90 nM
IC50 (CCRFCEM): 50 nM
IC50 (SPC111): 360 nM
IC50 (BHL-89): 230 nM
IC50 (LN229): 630 nM
IC50 (HCT116): 120 nM
IC50 (BC3): 20 nM
AUC(0-t) [2]: 2.07 µM·h
